# Source: US20250123282A1, “METHODS FOR EVALUATION AND TREATMENT OF TYROSINE KINASE INHIBITOR (TKI)-RESISTANT ACUTE MYELOID LEUKEMIA” (LOMA LINDA UNIVERSITY, priority 2021, published 2025)
# Key:
# primary AML BMMNC = experiment: Human cytokine proteome profile array of cell-free supernatants from treated primary AML BMMNC; format: cell-based; conditions: 80 nM GILT, 3 days ex vivo, Patient #1 and #2, vs non-treated control
# Protocol: (§1) To identify the protein(s) responsible for initiation of the survival mechanism and subsequent proliferation of AML blasts, human cytokine proteome profile arrays of cell-free supernatants from GILT-treated MV4-11's cultures were performed. […] Under the no treatment (No Tx) condition, MV4-11 releases numerous cytokines such as MIF in their supernatant; however, one dose of GILT-treatment eliminated release of a variety of cytokines such as osteopontin (arrows, FIG. 7A), a protein closely associated with adverse prognosis in AML patients. Next, bone marrow mononuclear cells (BMMNC) from AML patients were treated for 3 days ex vivo.
# Human Samples. AML bone marrow (BM) mononuclear cells (BMMNC) (Patients #1-7, Table 4) were obtained from the City of Hope National Medical Center (COHNMC). All donor patients signed an informed consent form. Sample acquisition was approved by the Institutional Review Boards at the LLUMC and the COHNMC in accordance with an assurance filed with and approved by the Department of Health and Human Services, and it met all requirements of the Declaration of Helsinki.
# For MIF in vitro experiments, different doses of MIF were added to 1 ml of 1×10^6 MV4-11 cells or RAW264.7 cells for each experimental group in 24-well plates. Two days after the one dose treatment, cells were then collected for either analyses by FACS and qPCR. […]
# MV4-11 cells [1] = experiment: Human cytokine proteome profile array of cell-free supernatants from GILT-treated MV4-11; format: cell-based; conditions: 80 nM GILT, MV4-11, vs non-treatment control
# Protocol: as §1
# Proteomics and Blotting Analysis. Three days after the one dose treatment, the cell-free supernatants were collected for human cytokine profile assay. The Human XL Cytokine Array Kit (Catalog #ARY022B, R&D) was used according to the manufacturer's procedures and exposed to X-ray film (<10 minutes). Profiles of mean spot pixel density were created using a transmission-mode scanner and Image J analysis software.
# MV4-11 = conditions: cited from earlier work
# MV4-11 cells [2] = experiment: Phase-bright imaging of re-growth of TKI-treated MV4-11; format: cell-based, human
# Text: (§2) To follow the cell fate of TKI-treated MV4-11 and MOLM-14, culturing of blasts were continued by performing medium change every 2-3 days. […] The BAD protein is a pro-apoptotic member of the BCL-2 gene family, which is involved in initiating apoptosis. Dephosphorylated BAD is pro-apoptotic by binding BCL-2 and inactivating BCL-2, while phosphorylated BAD (pBAD) is anti-apoptotic by leaving BCL-2 free to inhibit BAX-triggered apoptosis.
# (§3) Small Molecular Inhibitors and in vitro & ex vivo Treatment. […] The dose of 80 nM for the four TKIs was selected based on their dose-dependent cytotoxicity in previous reports. […] Both GILT and QUIZ were reported to start to suppress the tumorigenic clustering and c-Kit at the dose of 80 nM. […] The combination of 5 μM 5-Azacitidine (AZA) and 80 nM 1α,25-Dihydroxyvitamin D3 (VD3) was added to the experimental group similar to the previous report. As combination agents to treat blasts in vitro, one dose of 80 nM GILT with one dose of either 100 nM Venetoclax (BCL2 inhibitor), 10 μM (R)-Lisofylline (STAT4 inhibitor), 100 nM AZD1208 (PIM inhibitor), 500 nM PF-06826647 (TYK2 inhibitor), or 500 nM AT9283 (JAK2/3 inhibitor) were added to 1 ml of 1×10^6 cells for each experimental group in 24 well plates. Three days after the one dose treatment, cells were then collected for either analyses by FACS and qPCR, or re-plated into 24 well plates for continued culture. At different time points, re-plated cells were collected for analyses by FACS and qPCR. Medium change was performed every 2-3 days.
# Imaging Acquisition. Phase-bright images were taken using an Olympus 1X71 inverted microscope and were processed using an Olympus cellSens Dimension 1.15 Imaging Software.
# MOLM-14 cells = experiment: Phase-bright imaging of re-growth of TKI-treated MOLM-14; format: cell-based, human; conditions: 10 days after TKI treatment
# Text: as §2
# as §3, with “At different time points, re-plated cells were collected for analyses by FACS and qPCR. Medium change was performed every 2-3 days.” left out
SMILES,MIF release increase in the supernatant (primary AML BMMNC),MIF increase in the supernatant (mean pixel density) (MV4-11 cells [1]),dose at which suppression of tumorigenic clustering and c-Kit starts (MV4-11),re-growth / tumorigenic clusters of MV4-11 (MV4-11 cells [2]; 10 days after TKI treatment),re-growth / tumorigenic clusters of MV4-11 (MV4-11 cells [2]; 20 days after TKI treatment),re-growth / relapse of MV4-11 (MV4-11 cells [2]; 28 days after TKI treatment),re-growth / tumorigenic clusters of MOLM-14 (MOLM-14 cells)
"CCc1nc(C(N)=O)c(Nc2ccc(N3CCC(N4CCN(C)CC4)CC3)c(OC)c2)nc1NC1CCOCC1 [GILT, Gilteritinib]",2.1 fold,2.6 fold,–,–,–,–,–
"CC(C)(C)c1cc(NC(=O)Nc2ccc(-c3cn4c(n3)sc3cc(OCCN5CCOCC5)ccc34)cc2)no1 [QUIZ, Quizartinib]",–,–,80 nM,few newly formed tumorigenic clusters,many tumorigenic clusters,grew confluent without tumorigenic clusters,few newly formed tumorigenic clusters
